In patent US11673876B2, “Substituted aminobenzyl heteroaryl compounds as EGFR and/or PI3K inhibitors” (Mekanistic Therapeutics LLC, priority 2020, dated 2023):

Experiments:
[1] = Metabolic stability in human liver microsomes; format: in vitro ADME
Experimental: (§1) Working solution: 5 μL of compound and control stock solution (10 mM in dimethyl sulfoxide (DMSO)) were diluted with 495 μL of acetonitrile (ACN) (intermediate solution concentration: 100 μM, 99% ACN)
(§2) NADPH Cofactor Preparation: NADPH powder: β-Nicotinamide adenine dinucleotide phosphate reduced form, tetrasodium salt; NADPH·4Na. The appropriate amount of NADPH powder was weighed and diluted into a 10 mM MgCl2 solution (working solution concentration: 10 unit/mL; final concentration in reaction system: 1 unit/mL)
(§3) Liver Microsomes Preparation: The appropriate concentrations of microsome working solutions were prepared in 100 mM potassium phosphate buffer. Cold (4° C.) acetonitrile (ACN) containing 200 ng/mL tolbutamide and 200 ng/mL labetalol as internal standards (1S) was used as the stop solution
(§4) Assay Procedure: Pre-warm empty ‘Incubation’ plates T60 and NCF60 for 10 minutes. Dilute liver microsomes to 0.56 mg/mL in 100 mM phosphate buffer. Transfer 445 μL microsome working solutions (0.56 mg/mL) into pre-warmed ‘Incubation’ plates T60 and NCF60, Then pre-incubate ‘Incubation’ plates T60 and NCF60 for 10 min at 37° C. with constant shaking. Transfer 54 μL liver microsomes to blank plate, then add 6 μL NAPDH cofactor to blank plate, and then add 180 μL quenching solution to blank plate. Add 5 μL compound working solution (100 μM) into ‘incubation’ plates (T60 and NCF60) containing microsomes and mix 3 times thoroughly.
(§5) For the NCF60 plate, add 50 μL of buffer and mix 3 times thoroughly. Start timing; plate will be incubated at 37° C. for 60 min while shaking. In ‘Quenching’ plate T0, add 180 μL quenching solution and 6 μL NAPDH cofactor. Ensure the plate is chilled to prevent evaporation. For the T60 plate, mix 3 times thoroughly, and immediately remove 54 μL mixture for the 0-min time point to ‘Quenching’ plate. Then add 44 μL NAPDH cofactor to incubation plate (T60). Start timing; plate will be incubated at 37° C. for 60 min while shaking. At 5, 10, 20, 30, and 60 min, add 180 μL quenching solution to ‘Quenching’ plates, mix once, and serially transfer 60 μL sample from T60 plate per time point to ‘Quenching’ plates. For NCF60: mix once, and transfer 60 μL sample from the NCF60 incubation to ‘Quenching’ plate containing quenching solution at the 60-min time point. All sampling plates are shaken for 10 min, then centrifuged at 4000 rpm for 20 minutes at 4° C. Transfer 80 μL supernatant into 240 μL HPLC water, and mix by plate shaker for 10 min. Each bioanalysis plate was sealed and shaken for 10 minutes prior to LC-MS/MS analysis.
(§6) The equation of first order kinetics was used to calculate T½ and CLint(mic) (μL/min/mg). Equation of first order kinetics: […]
(§7) The biological stability of the compounds of the disclosure can be measured by determining its ½ life in the presence microsomes. Presented in Table 5, is the ½ life of selected compounds of the disclosure in the presence of human liver microsomes (HLM) or mouse liver microsomes (MLM) as described above. In Table 5, ½ life is presented as “++++” (value is greater than 60 minutes), “+++” (value is greater than 30 minutes and less than or equal to 60 minutes), “++” (value is greater than 15 minutes and less than or equal to 30 minutes) and “+” (value is 15 minutes or less).

EGFR = EGFR (Homo sapiens (Human), UniProt P00533); assay: Z'-LYTE / Adapta kinase assay, EGFR; format: biochemical; conditions: for inhibition at 0.1 µM: read-out: EGFR % Inh. @ 100 nM
Chain of EGFR (P00533 25-1210): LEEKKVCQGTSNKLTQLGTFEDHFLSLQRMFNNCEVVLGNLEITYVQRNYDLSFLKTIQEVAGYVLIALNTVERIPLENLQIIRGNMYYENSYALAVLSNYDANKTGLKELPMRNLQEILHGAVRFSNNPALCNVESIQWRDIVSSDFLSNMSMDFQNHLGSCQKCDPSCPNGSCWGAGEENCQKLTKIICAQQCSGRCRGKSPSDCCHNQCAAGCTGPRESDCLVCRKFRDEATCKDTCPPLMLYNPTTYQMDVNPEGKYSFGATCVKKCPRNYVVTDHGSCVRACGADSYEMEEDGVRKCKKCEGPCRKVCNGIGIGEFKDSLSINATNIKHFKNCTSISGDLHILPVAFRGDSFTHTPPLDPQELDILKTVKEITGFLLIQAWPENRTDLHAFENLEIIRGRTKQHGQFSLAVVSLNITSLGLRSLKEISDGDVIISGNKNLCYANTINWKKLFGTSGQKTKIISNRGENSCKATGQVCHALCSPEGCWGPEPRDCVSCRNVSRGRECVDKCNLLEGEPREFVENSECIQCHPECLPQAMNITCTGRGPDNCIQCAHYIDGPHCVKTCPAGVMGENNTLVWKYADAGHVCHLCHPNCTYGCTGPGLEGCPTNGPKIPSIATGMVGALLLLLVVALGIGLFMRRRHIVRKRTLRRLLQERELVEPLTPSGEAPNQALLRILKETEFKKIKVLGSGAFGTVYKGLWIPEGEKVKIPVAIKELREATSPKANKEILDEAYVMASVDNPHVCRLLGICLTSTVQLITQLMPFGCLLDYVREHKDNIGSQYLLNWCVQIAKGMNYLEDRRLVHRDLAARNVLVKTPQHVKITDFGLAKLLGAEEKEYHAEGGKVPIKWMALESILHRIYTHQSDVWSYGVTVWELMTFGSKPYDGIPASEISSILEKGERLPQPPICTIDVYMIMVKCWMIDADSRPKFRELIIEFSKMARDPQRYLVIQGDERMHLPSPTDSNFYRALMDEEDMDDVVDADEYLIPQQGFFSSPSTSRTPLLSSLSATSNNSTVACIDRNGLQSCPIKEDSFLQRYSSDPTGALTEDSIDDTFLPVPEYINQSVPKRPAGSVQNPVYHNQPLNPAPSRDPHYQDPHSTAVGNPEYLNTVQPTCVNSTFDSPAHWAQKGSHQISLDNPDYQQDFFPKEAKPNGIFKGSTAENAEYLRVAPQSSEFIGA
Source text: (§8) The Z′-LYTE® biochemical assay employs a fluorescence-based, coupled-enzyme format and is based on the differential sensitivity of phosphorylated and non-phosphorylated peptides to proteolytic cleavage (FIG. 6). The peptide substrate is labeled with two fluorophores one at each end—that make up a FRET pair. In the primary reaction, the kinase transfers the gamma-phosphate of ATP to a single tyrosine, serine or threonine residue in a synthetic FRET-peptide. In the secondary reaction, a site-specific protease recognizes and cleaves non-phosphorylated FRET-peptides. Phosphorylation of FRET-peptides suppresses cleavage by the Development Reagent. Cleavage disrupts FRET between the donor (i.e., coumarin) and acceptor (i.e., fluorescein) fluorophores on the FRET-peptide, whereas uncleaved, phosphorylated FRET-peptides maintain FRET. A ratiometric method, which calculates the ratio (the Emission Ratio) of donor emission to acceptor emission after excitation of the donor fluorophore at 400 nm, is used to quantitate reaction progress.
(§9) A significant benefit of this ratiometric method for quantitating reaction progress is the elimination of well-to-well variations in FRET-peptide concentration and signal intensities. As a result, the assay yields very high Z′-factor values (>0.7) at a low percent phosphorylation.
(§10) Both cleaved and uncleaved FRET-peptides contribute to the fluorescence signals and therefore to the Emission Ratio. The extent of phosphorylation of the FRET-peptide can be calculated from the Emission Ratio.
(§11) Enzyme: The ADAPTA universal kinase assay is a homogenous, fluorescent based immunoassay for the detection of ADP. In contrast to ATP depletion assays, the ADAPTA assay is extremely sensitive to ADP formation such that a majority of the signal change occurs in the first 10-20% conversion of ATP to ADP. This makes the ADAPTA universal kinase assay ideally suited for use with low activity kinases.
(§12) The principle of the ADAPTA universal kinase assay is outlined below. The assay itself can be divided into two phases: a kinase reaction phase, and an ADP detection phase. In the kinase reaction phase, all components required for the kinase reaction are added to the well, and the reaction is allowed to incubate for 60 minutes.
(§13) Z′-LYTE® Assay Conditions:
(§14) Test Compounds: The Test Compounds are screened in 1% DMSO (final) in the well. For 10 point titrations, 3-fold serial dilutions are conducted from the starting concentration.
(§15) Peptide/Kinase Mixtures: All Peptide/Kinase Mixtures are diluted to a 2× working concentration in the appropriate Kinase Buffer.
(§16) ATP Solution: All ATP Solutions are diluted to a 4× working concentration in Kinase Buffer (50 mM HEPES pH 7.5, 0.01% BRIJ-35, 10 mM MgCl2, 1 mM EGTA). ATP Km apparent is previously determined using a Z′-LYTE® assay.
(§17) Development Reagent Solution: The Development Reagent is diluted in Development Buffer. […]
(§18) 2.5 μL—4× Test Compound or 100 nL 100× plus 2.4 μL kinase buffer. 2. 5 μL—2× Peptide/Kinase Mixture. 3. 2.5 μL—4× ATP Solution. 4. 30-second plate shake. 5. 60-minute Kinase Reaction incubation at room temperature. 6. 5 μL—Development Reagent Solution. 7. 30-second plate shake. 8. 60-minute Development Reaction incubation at room temperature. 9.

DNA-PK = DNA-PK (Homo sapiens (Human), UniProt P78527); assay: Z'-LYTE / Adapta kinase assay, DNA-PK; format: biochemical; conditions: for inhibition at 0.1 µM: read-out: DNA-PK % Inh. @ 100 nM
Source text: as §8, §9, §10, §11, §12, §13, §14, §15, §16, §17, §18

[2] = Metabolic stability in mouse liver microsomes; format: in vitro ADME
Experimental: as §1, §2, §3, §4, §5, §6, §7

PI3Ka = PI3Ka (Homo sapiens (Human), UniProt P42336); assay: Z'-LYTE / Adapta kinase assay, PI3Ka; format: biochemical; conditions: for inhibition at 0.1 µM: read-out: PI3Ka % Inh. @ 100 nM
Chain of PI3Ka (P42336 whole entry): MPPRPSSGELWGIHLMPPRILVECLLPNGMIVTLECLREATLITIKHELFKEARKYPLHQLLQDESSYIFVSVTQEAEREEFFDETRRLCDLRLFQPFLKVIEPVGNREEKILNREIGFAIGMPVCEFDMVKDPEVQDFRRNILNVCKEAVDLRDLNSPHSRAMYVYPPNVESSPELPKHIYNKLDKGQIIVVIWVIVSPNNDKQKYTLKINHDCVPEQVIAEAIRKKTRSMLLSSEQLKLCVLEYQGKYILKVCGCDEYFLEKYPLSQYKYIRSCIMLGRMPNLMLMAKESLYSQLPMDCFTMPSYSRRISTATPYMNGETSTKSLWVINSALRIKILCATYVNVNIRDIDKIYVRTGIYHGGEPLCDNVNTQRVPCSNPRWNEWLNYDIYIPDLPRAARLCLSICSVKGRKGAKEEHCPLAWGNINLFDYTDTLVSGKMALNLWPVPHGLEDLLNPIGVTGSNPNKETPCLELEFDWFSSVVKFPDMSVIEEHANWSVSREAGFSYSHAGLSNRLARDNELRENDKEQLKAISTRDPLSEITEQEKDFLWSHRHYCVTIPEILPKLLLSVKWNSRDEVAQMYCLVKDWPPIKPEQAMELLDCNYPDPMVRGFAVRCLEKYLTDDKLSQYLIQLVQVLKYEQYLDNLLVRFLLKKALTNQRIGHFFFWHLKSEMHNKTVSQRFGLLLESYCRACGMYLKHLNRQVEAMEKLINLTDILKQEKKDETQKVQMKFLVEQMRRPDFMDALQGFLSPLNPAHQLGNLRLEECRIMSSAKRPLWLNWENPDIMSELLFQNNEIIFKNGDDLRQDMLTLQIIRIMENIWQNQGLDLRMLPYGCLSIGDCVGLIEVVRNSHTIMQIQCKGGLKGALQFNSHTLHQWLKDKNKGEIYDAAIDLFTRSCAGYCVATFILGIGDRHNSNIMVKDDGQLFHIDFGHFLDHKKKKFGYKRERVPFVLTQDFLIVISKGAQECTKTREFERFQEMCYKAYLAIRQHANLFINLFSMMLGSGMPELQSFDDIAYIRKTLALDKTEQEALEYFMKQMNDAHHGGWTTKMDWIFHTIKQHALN
Chain of PI3Ka (P27986 whole entry partner): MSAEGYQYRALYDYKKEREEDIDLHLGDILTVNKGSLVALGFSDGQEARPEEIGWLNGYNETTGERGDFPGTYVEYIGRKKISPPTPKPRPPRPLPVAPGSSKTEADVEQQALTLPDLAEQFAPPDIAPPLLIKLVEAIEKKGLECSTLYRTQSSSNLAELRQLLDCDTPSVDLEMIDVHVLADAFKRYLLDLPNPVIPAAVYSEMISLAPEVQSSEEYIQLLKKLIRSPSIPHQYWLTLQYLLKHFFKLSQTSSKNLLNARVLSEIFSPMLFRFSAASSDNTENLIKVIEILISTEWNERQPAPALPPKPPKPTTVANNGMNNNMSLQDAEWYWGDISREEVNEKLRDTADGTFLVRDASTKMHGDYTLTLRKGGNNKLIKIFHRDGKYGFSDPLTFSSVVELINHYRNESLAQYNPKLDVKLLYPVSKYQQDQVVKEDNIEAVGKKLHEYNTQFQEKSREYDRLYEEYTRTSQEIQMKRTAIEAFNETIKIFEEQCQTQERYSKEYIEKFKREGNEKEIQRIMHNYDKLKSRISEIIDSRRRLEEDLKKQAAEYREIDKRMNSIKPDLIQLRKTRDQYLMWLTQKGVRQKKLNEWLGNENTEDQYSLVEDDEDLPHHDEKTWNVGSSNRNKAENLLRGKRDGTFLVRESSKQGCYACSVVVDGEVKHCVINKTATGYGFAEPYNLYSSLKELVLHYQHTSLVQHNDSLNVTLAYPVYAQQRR
Source text: as §8, §9, §10, §11, §12, §13, §14, §15, §16, §17, §18

| SMILES | ½ life minutes (HLM) [1] | inhibition at 0.1 µM (EGFR) [%] | inhibition at 0.1 µM (DNA-PK) [%] | ½ life minutes (MLM) [2] | inhibition at 0.1 µM (PI3Ka) [%] | IC50 (EGFR) [nM] | IC50 (DNA-PK) [nM] | PI3Ka IC50 (nM) (PI3Ka) | IC50 (PI3Ka) [nM] |
| --- | --- | --- | --- | --- | --- | --- | --- | --- | --- |
| CC(Nc1c(C#N)cnc2ccc(-c3cnc(Cl)c(NS(C)(=O)=O)c3)cc12)c1ccccc1 (stereo not drawn) [Compound 48, N-[2-chloro-5-[3-cyano-4-(1-phenylethylamino)-6-quinolyl]-3-pyridyl]methanesulfonamide] | ++++ (value is greater than 60 minutes) | 80 to 90 | > 90 | ++++ (value is greater than 60 minutes) | > 90 |  |  |  |  |
| C[C@@H](Nc1c(C#N)cnc2ccc(-c3cnc(Cl)c(NS(C)(=O)=O)c3)cc12)c1ccccc1 [Compound 48R, N-(2-chloro-5-(3-cyano-4-((1R-phenylethyl)amino)quinolin-6-yl)pyridin-3-yl)methanesulfonamide] | +++ (value is greater than 30 minutes and less than or equal to 60 minutes) | > 90 | > 90 | ++++ (value is greater than 60 minutes) | > 90 | 2 to 20 |  |  |  |
| C[C@H](Nc1c(C#N)cnc2ccc(-c3cnc(Cl)c(NS(C)(=O)=O)c3)cc12)c1ccccc1 [Compound 48S, N-(2-chloro-5-(3-cyano-4-((1S-phenylethyl)amino)quinolin-6-yl)pyridin-3-yl)methanesulfonamide] | ++++ (value is greater than 60 minutes) | < 10 | > 90 | ++++ (value is greater than 60 minutes) | > 90 | > 200 | < 2 | ++++ (value is 2 nM or less) |  |
| C[C@@H](Nc1c(C#N)cnc2ccc(-c3cnc(Cl)c(NS(C)(=O)=O)c3)cc12)c1ccc(F)cc1 [Compound 97R, N-[2-chloro-5-[3-cyano-4-[[(1R)-1-(4-fluorophenyl)ethyl]amino]-6-quinolyl]-3-pyridyl]methanesulfonamide] | ++++ (value is greater than 60 minutes) | 10 to 80 | > 90 | ++++ (value is greater than 60 minutes) |  |  |  |  |  |
| C[C@H](Nc1c(C#N)cnc2ccc(-c3cnc(Cl)c(NS(C)(=O)=O)c3)cc12)c1ccc(F)cc1 [Compound 97S, N-(2-chloro-5-(3-cyano-4-((1S-(4-fluorophenyl)ethyl)amino)quinolin-6-yl)pyridin-3-yl)methanesulfonamide] | ++++ (value is greater than 60 minutes) | < 10 | > 90 | ++++ (value is greater than 60 minutes) | > 90 | > 200 | < 2 |  | < 2 |
| CS(=O)(=O)Nc1cc(-c2ccc3ncc(C#N)c(NC4(c5ccccc5)CC4)c3c2)cnc1Cl [Compound 106, N-[2-chloro-5-[3-cyano-4-[(1-phenylcyclopropyl)amino]-6-quinolyl]-3-pyridyl]methanesulfonamide] | ++++ (value is greater than 60 minutes) | 10 to 80 | > 90 | +++ (value is greater than 30 minutes and less than or equal to 60 minutes) |  |  |  |  |  |
| C[C@H](Nc1ncnc2ccc(-c3cnc(Cl)c(NS(C)(=O)=O)c3)cc12)c1ccc(F)cc1 [Compound 111S, N-[2-chloro-5-[4-[[(1S)-1-(4-fluorophenyl)ethyl]amino]quinazolin-6-yl]-3-pyridyl]methanesulfonamide] | ++++ (value is greater than 60 minutes) | < 10 | > 90 | ++++ (value is greater than 60 minutes) | > 90 | > 200 | < 2 | ++++ (value is 2 nM or less) |  |
| CC(Nc1ncnc2ccc(-c3cnc(N)nc3)cc12)c1ccc(F)cc1 (stereo not drawn) [Compound 121, 6-(2-aminopyrimidin-5-yl)-N-(1-(4-fluorophenyl)ethyl)quinazolin-4-amine] | ++++ (value is greater than 60 minutes) | 80 to 90 | 10 to 80 | ++++ (value is greater than 60 minutes) | 10 to 80 | 2 to 20 | > 200 | + (value is greater than 200 nM) |  |
